Measured values: patent US8008074B2, “Compositions and methods for improving bone mass through modulation of receptors of PTH and fragments thereof” (The UAB Research Foundation, priority 2006, dated 2011)

Legend:
Type in all cases: cell-based
TGFβ/Smad signaling = TGFβ/Smad signaling after PTH pretreatment
Protocol: Panel B is a graph showing the decrease in activity from the SBE-luciferase reporter in the presence of PTH and PTH1R.
It has been reported that TGFβ-induced endocytosis of TGFβ/TβRII is mediated by Sara endosome. The response of TβRII to PTH was analyzed to determine whether it is the same as to TGFβ. […] The observation was confirmed by TGFβ-induced interaction between Smad2 and Smad4.

LRP6 [1] = biological target: T1, LRP6 (Rattus norvegicus, UniProt A0A0G2K0H3); experiment: LRP6 phosphorylation at the PPPSP motif (Western blot); conditions: UMR-106 cells, endogenous LRP6; data not shown
T1 construct: The cell lysates were immunoprecipitated for endogenous LRP6; endogenous in cells; host or cells: UMR-106
Protocol: (§1) UMR-106 cells were treated with either PTH or Wnt-3a. The cell lysates were immunoprecipitated for endogenous LRP6, and the precipitated immunocomplexes were detected by Western blotting with an antibody that specifically recognizes the phosphorylated PPPSP motifs (aa, 1490) (Tamai et al., 2004). […] To further confirm the role of PTH in inducing phosphorylation of LRP5 and LRP6 individually, HEK293 cells were transfected with HA-tagged LRP5, and the phosphorylated LRP5 was detected by Western blotting of the anti-HA immunoprecipitates with Ab1490.
(§2) If the observation is true, then the phosphorylated PPPSP motif will serve as an Axin docking site.

LRP6 [2] = biological target: T2, LRP6 (Homo sapiens, UniProt O75581); experiment: as above; conditions: without added GSK3β; data not shown
T2 construct: The cell lysates were immunoprecipitated for endogenous LRP6; endogenous in cells; host or cells: UMR-106
Protocol: as §1, §2

T1 sequence (A0A0G2K0H3 20-1611): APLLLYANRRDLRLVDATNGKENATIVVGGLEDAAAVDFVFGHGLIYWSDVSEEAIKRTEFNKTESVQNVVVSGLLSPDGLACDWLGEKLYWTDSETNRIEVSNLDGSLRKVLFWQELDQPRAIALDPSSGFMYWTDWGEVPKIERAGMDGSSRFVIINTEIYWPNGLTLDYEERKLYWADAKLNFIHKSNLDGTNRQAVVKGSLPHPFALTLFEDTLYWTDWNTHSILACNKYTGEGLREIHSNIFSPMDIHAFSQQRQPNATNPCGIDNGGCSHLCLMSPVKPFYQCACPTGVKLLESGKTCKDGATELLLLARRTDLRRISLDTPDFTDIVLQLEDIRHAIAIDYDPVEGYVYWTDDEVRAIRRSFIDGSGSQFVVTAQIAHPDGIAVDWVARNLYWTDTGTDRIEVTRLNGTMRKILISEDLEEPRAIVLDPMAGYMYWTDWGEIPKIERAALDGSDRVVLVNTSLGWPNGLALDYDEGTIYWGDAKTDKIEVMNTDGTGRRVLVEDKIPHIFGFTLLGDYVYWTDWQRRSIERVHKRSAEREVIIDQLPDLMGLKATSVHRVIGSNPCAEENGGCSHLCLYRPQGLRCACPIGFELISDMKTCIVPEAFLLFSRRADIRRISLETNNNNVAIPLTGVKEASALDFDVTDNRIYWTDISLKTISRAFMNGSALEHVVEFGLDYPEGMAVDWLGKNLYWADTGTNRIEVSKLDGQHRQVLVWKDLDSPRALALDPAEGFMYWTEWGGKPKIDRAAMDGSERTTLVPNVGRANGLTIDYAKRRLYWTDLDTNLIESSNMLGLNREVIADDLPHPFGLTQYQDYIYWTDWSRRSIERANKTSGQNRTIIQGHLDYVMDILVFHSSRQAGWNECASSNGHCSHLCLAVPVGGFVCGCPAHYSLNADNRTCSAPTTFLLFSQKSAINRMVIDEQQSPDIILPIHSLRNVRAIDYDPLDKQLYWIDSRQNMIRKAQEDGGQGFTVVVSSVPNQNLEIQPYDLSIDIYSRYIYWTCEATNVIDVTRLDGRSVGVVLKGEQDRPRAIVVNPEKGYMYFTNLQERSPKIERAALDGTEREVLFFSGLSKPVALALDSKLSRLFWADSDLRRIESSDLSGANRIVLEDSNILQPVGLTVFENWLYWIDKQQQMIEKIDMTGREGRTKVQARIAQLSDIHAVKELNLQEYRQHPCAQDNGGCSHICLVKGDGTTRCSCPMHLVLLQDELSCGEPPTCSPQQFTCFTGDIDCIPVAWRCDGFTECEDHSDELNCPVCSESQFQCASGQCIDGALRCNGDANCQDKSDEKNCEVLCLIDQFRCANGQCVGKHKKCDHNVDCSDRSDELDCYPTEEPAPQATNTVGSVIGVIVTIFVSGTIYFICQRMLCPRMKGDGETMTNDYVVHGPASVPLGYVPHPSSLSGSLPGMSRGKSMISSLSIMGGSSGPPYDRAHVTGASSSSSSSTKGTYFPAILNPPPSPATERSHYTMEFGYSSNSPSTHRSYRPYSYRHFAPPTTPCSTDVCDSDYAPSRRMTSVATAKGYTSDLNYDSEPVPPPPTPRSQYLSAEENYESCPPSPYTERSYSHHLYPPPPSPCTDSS
T2 sequence (O75581 20-1613): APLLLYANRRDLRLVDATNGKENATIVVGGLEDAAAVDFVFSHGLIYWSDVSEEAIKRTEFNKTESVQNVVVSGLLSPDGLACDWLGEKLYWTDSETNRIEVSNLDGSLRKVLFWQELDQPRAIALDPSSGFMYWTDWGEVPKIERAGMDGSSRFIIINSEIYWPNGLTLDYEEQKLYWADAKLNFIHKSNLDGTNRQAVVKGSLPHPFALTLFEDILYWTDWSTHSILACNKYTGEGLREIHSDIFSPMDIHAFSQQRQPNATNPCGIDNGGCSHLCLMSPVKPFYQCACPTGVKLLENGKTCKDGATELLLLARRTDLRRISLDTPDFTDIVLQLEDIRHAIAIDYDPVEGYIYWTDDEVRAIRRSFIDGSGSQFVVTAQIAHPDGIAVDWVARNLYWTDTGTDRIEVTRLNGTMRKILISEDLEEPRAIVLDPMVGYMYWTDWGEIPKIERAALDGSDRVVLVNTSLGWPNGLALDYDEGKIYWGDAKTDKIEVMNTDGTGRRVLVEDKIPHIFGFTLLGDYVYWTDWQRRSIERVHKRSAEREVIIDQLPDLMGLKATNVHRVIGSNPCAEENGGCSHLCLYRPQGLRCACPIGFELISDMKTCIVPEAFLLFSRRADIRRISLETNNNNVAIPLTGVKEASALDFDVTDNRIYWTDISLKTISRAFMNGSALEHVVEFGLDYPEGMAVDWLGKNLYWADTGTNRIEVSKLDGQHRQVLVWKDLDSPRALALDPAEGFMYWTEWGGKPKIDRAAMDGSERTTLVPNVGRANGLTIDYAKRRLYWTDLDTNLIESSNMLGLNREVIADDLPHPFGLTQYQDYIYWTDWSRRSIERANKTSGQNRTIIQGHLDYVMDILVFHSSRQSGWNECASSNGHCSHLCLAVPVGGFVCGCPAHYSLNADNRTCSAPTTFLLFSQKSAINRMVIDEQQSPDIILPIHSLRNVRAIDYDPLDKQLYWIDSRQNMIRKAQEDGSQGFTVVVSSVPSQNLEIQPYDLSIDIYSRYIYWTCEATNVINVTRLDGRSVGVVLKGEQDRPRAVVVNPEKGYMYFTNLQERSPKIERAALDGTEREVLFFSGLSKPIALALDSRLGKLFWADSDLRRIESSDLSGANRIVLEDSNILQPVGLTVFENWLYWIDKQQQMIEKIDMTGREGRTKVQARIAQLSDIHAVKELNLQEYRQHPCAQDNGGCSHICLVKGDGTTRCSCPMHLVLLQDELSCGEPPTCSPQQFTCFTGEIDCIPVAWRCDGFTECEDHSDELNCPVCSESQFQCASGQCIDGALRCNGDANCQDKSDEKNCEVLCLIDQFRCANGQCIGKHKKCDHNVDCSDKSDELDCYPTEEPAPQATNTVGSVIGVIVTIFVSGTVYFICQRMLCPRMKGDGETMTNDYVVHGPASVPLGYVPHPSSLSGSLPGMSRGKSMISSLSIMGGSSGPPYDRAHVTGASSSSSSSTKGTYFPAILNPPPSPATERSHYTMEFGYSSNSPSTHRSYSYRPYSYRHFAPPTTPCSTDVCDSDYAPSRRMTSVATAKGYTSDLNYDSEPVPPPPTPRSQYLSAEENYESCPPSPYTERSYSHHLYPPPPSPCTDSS

Substance: PTH: Parathyroid hormone ligand, form not stated at the place; figure legends give PTH (1-84) or PTH (1-34)
- phosphorylation of Smad2 by TGFβ after PTH pretreatment (TGFβ/Smad signaling; C2C12 cells pretreated with PTH): largely inhibited
- inhibition by PTH1R of TGFβ activation of SBE luciferase reporter (TGFβ/Smad signaling; cells expressing PTH1R): enhanced the inhibition
- TGFβ-induced interaction between Smad2 and Smad4 (TGFβ/Smad signaling; pretreatment with PTH): inhibits the interaction
- LRP6 phosphorylation at the PPPSP motif (LRP6 [1]): rapidly induced LRP6 phosphorylation at the PPPSP motif
- phosphorylation of LRP6, PTH alone (LRP6 [2]): much weaker stimulation
